# Target: human MGL from HeLa cells (Homo sapiens (Human), UniProt Q99685)
# Test: MGL in vitro activity assay ([glycerol-1,3-3H]-oleoyl glycerol hydrolysis, activated carbon filtration)
# Assay type: biochemical
# Conditions: 300 nM [Glycerol-1,3-3H]-oleoyl glycerol, one hour
# How it was run: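 Endogenous human MGL in HeLa cells/homogenates incubated 1 h with test compounds and 300 nM [glycerol-1,3-3H]-oleoyl glycerol. Released 3H-glycerol passing an activated carbon filter counted as activity; screening at 10 μM compound, top IC50 concentration set empirically.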
# Chain of human MGL from HeLa cells (Q99685 whole entry): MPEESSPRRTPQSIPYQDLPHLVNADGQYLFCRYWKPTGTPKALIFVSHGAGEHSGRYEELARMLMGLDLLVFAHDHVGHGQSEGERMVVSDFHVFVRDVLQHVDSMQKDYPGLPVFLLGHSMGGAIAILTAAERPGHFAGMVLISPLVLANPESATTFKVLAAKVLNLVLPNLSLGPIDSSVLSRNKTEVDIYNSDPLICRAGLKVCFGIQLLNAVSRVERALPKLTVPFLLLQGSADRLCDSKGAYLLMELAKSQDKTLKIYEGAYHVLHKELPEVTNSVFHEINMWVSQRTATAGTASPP
row,IC50 [µM],SMILES
1,0.018,"Cc1ccc(CC2CC3(C2)CN(C(=O)[C@H]2C[C@@](C)(O)C2)C3)nc1C(F)(F)F [Example 277, ((1s,3s)-3-Hydroxy-3-methylcyclobutyl)(6-((5-methyl-6-(trifluoromethyl)pyridin-2-yl)methyl)-2-azaspiro[3.3]heptan-2-yl)methanone]"
2,1.39,"CC(C)(C)n1cnc(C2CCC3(CC2)CN(C(=O)[C@H]2C[C@@](C)(O)C2)C3)c1 [Example 381, (7-(1-(tert-Butyl)-1H-imidazol-4-yl)-2-azaspiro[3.5]nonan-2-yl)((1s,3s)-3-hydroxy-3-methylcyclobutyl)methanone]"
3,0.037,"Cc1c(Cl)cccc1C1CCC2(C1)CN(C(=O)[C@H]1C[C@@](C)(O)C1)C2 (mixture of isomers) [Example 11, (rac)-(6-(3-Chloro-2-methylphenyl)-2-azaspiro[3.4]octan-2-yl)((1s,3s)-3-hydroxy-3-methylcyclobutyl)methanone]"
4,0.038,"Cc1cccc(C2CCC3(CC2)CN(C(=O)[C@H]2C[C@@](C)(O)C2)C3)c1 [Example 137, ((1s,3s)-3-Hydroxy-3-methylcyclobutyl)(7-(m-tolyl)-2-azaspiro[3.5]nonan-2-yl)methanone]"
5,0.0045,"Cc1cc(C2CC2)cc(C2CCC3(CC2)CN(C(=O)[C@H]2C[C@@](C)(O)C2)C3)c1 [Example 143, (7-(3-Cyclopropyl-5-methylphenyl)-2-azaspiro[3.5]nonan-2-yl)((1s,3s)-3-hydroxy-3-methylcyclobutyl)methanone]"
6,0.027,"C[C@]1(O)C[C@@H](C(=O)N2CC3(CCC(c4cnn5cccc5c4)CC3)C2)C1 [Example 393, ((1s,3s)-3-Hydroxy-3-methylcyclobutyl)(7-(pyrrolo[1,2-b]pyridazin-3-yl)-2-azaspiro[3.5]nonan-2-yl)methanone]"
7,0.018,"Cc1cc(C2CCC3(CC2)CN(C(=O)[C@H]2C[C@@](C)(O)C2)C3)ccc1F [Example 353, (7-(4-Fluoro-3-methylphenyl)-2-azaspiro[3.5]nonan-2-yl)((1s,3s)-3-hydroxy-3-methylcyclobutyl)methanone]"
8,0.017,"Cc1c(C2CCC3(CC2)CN(C(=O)[C@H]2C[C@@](C)(O)C2)C3)ccnc1OC(C)C [Example 376, ((1s,3s)-3-Hydroxy-3-methylcyclobutyl)(7-(2-isopropoxy-3-methylpyridin-4-yl)-2-azaspiro[3.5]nonan-2-yl)methanone]"
9,0.034,"C[C@]1(O)C[C@@H](C(=O)N2CC3(CC[C@@H](c4cccc(C(F)(F)F)c4)C3)C2)C1 (stereo in doubt) [Example 62, ((1s,3*S)-3-Hydroxy-3-methylcyclobutyl)((*R)-6-(3-(trifluoromethyl)phenyl)-2-azaspiro[3.4]octan-2-yl)methanone]"
10,0.019,"Cc1ccc(C)c(OC2CCC3(CC2)CN(C(=O)[C@H]2C[C@@](C)(O)C2)C3)n1 [Example 429, (7-((3,6-Dimethylpyridin-2-yl)oxy)-2-azaspiro[3.5]nonan-2-yl)((1s,3 s)-3-hydroxy-3-methylcyclobutyl)methanone]"
11,0.02,"Cc1ccc(F)c(C2CCC3(CC2)CN(C(=O)[C@H]2C[C@@](C)(O)C2)C3)c1 [Example 354, (7-(2-Fluoro-5-methylphenyl)-2-azaspiro[3.5]nonan-2-yl)((1s,3s)-3-hydroxy-3-methylcyclobutyl)methanone]"
12,0.029,"C[C@]1(O)C[C@@H](C(=O)N2CC3(CCC(Oc4ccc(C(F)(F)F)cn4)CC3)C2)C1 [Example 417, ((1s,3s)-3-Hydroxy-3-methylcyclobutyl)(7-((5-(trifluoromethyl)pyridin-2-yl)oxy)-2-azaspiro[3.5]nonan-2-yl)methanone]"
13,0.028,"Cn1ncc2ccc(CC3CC4(C3)CN(C(=O)[C@H]3C[C@@](C)(O)C3)C4)c(F)c21 [Example 305, (6-((7-Fluoro-1-methyl-1H-indazol-6-yl)methyl)-2-azaspiro[3.3]heptan-2-yl)((1s,3s)-3-hydroxy-3-methylcyclobutyl)methanone]"
14,0.021,"Cc1cccc(CC2CC3(C2)CN(C(=O)[C@H]2C[C@@](C)(O)C2)C3)c1 [Example 165, ((1s,3s)-3-Hydroxy-3-methylcyclobutyl)(6-(3-methylbenzyl)-2-azaspiro[3.3]heptan-2-yl)methanone]"
15,0.0093,"Cc1cc(OC(C)C)nc(C2CCC3(CC2)CN(C(=O)[C@H]2C[C@@](C)(O)C2)C3)c1 [Example 374, ((1s,3s)-3-Hydroxy-3-methylcyclobutyl)(7-(6-isopropoxy-4-methylpyridin-2-yl)-2-azaspiro[3.5]nonan-2-yl)methanone]"
16,0.00055,"COc1nc(OC2CCC3(CC2)CN(C(=O)[C@H]2C[C@@](C)(O)C2)C3)ccc1C(F)(F)F [Example 458, ((1s,3s)-3-Hydroxy-3-methylcyclobutyl)(7-((6-methoxy-5-(trifluoromethyl)pyridin-2-yl)oxy)-2-azaspiro[3.5]nonan-2-yl)methanone]"

row,IC50 [µM],SMILES
1,0.031,"Cc1cccc(CC2CCC3(CC2)CN(C(=O)[C@H]2C[C@@](C)(O)C2)C3)c1 [Example 159, ((1s,3s)-3-Hydroxy-3-methylcyclobutyl)(7-(3-methylbenzyl)-2-azaspiro[3.5]nonan-2-yl)methanone]"
2,0.0075,"CC[C@]1(O)C[C@@H](C(=O)N2CC3(CCC(c4cccc(C(C)(C)C)c4)C3)C2)C1 (mixture of isomers) [Example 126, (rac)-(6-(3-(tert-Butyl)phenyl)-2-azaspiro[3.4]octan-2-yl)((1r,3s)-3-ethyl-3-hydroxycyclobutyl)methanone]"
3,0.077,"C[C@H](c1ccccc1)C1CC2(C1)CN(C(=O)[C@H]1C[C@@](C)(O)C1)C2 (stereo in doubt) [Example 311, ((1s,3*R)-3-Hydroxy-3-methylcyclobutyl)(6-((*S)-1-phenylethyl)-2-azaspiro[3.3]heptan-2-yl)methanone]"
4,0.042,"Cc1ccc(OC(F)F)cc1C1CCC2(C1)CN(C(=O)[C@H]1C[C@@](C)(O)C1)C2 (mixture of isomers) [Example 85, (rac)-(6-(5-(Difluoromethoxy)-2-methylphenyl)-2-azaspiro[3.4]octan-2-yl)((1s,3s)-3-hydroxy-3-methylcyclobutyl)methanone]"
5,0.002,"Cc1cn(C)c2nc(OC3CCC4(CC3)CN(C(=O)[C@H]3C[C@@](C)(O)C3)C4)ccc12 [Example 471, (7-((1,3-Dimethyl-1H-pyrrolo[2,3-b]pyridin-6-yl)oxy)-2-azaspiro[3.5]nonan-2-yl)((1s,3s)-3-hydroxy-3-methylcyclobutyl)methanone]"
6,0.292,"C[C@]1(O)C[C@@H](C(=O)N2CC3(CC(c4ccc(C5CC5)cc4)C3)C2)C1 [Example 5, (6-(4-Cyclopropylphenyl)-2-azaspiro[3.3]heptan-2-yl)((1s,3s)-3-hydroxy-3-methylcyclobutyl)methanone]"
7,0.0074,"CC(C)c1cccc(OC2CC3(C2)CN(C(=O)[C@H]2C[C@@](C)(O)C2)C3)c1C(F)(F)F [Example 251, ((1s,3s)-3-Hydroxy-3-methylcyclobutyl)(6-(3-isopropyl-2-(trifluoromethyl)phenoxy)-2-azaspiro[3.3]heptan-2-yl)methanone]"
8,0.0039,"Cc1cc(CC2CCC3(C2)CN(C(=O)[C@H]2C[C@@](C)(O)C2)C3)ccc1C(F)(F)F (mixture of isomers) [Example 204, (rac)-((1s,3s)-3-Hydroxy-3-methylcyclobutyl)(6-(3-methyl-4-(trifluoromethyl)benzyl)-2-azaspiro[3.4]octan-2-yl)methanone]"
9,0.02,"CC(C)(C)c1cccc(C2CCC3(CCN(C(=O)[C@H]4C[C@@](C)(O)C4)CC3)C2)c1 (mixture of isomers) [Example 38, (rac)-(2-(3-(tert-Butyl)phenyl)-8-azaspiro[4.5]decan-8-yl)((1s,3s)-3-hydroxy-3-methylcyclobutyl)methanone]"
10,0.017,"Cc1ccc(C(F)(F)F)c(OC2CCC3(CC2)CN(C(=O)[C@H]2C[C@@](C)(O)C2)C3)n1 [Example 443, ((1s,3s)-3-Hydroxy-3-methylcyclobutyl)(7-((6-methyl-3-(trifluoromethyl)pyridin-2-yl)oxy)-2-azaspiro[3.5]nonan-2-yl)methanone]"
11,0.01,"CC(C)(C)c1ccc(OC2CCC3(CC2)CN(C(=O)[C@H]2C[C@@](C)(O)C2)C3)cc1 [Example 260, (7-(4-(tert-Butyl)phenoxy)-2-azaspiro[3.5]nonan-2-yl)((1s,3s)-3-hydroxy-3-methylcyclobutyl)methanone]"
12,0.029,"C[C@]1(O)C[C@@H](C(=O)N2CC3(CCC(Cc4ccc(C(F)F)cc4)CC3)C2)C1 [Example 162, (7-(4-(Difluoromethyl)benzyl)-2-azaspiro[3.5]nonan-2-yl)((1s,3s)-3-hydroxy-3-methylcyclobutyl)methanone]"
13,0.119,"Cn1cc(CC2CC3(C2)CN(C(=O)[C@H]2C[C@@](C)(O)C2)C3)c(C(F)(F)F)n1 [Example 225, ((1s,3s)-3-Hydroxy-3-methylcyclobutyl)(6-((1-methyl-3-(trifluoromethyl)-1H-pyrazol-4-yl)methyl)-2-azaspiro[3.3]heptan-2-yl)methanone]"
14,0.0081,"CC(C)(C)c1cccc(OC2CCC3(CC2)CN(C(=O)[C@H]2C[C@@](C)(O)C2)C3)c1 [Example 257, (7-(3-(tert-Butyl)phenoxy)-2-azaspiro[3.5]nonan-2-yl)((1s,3s)-3-hydroxy-3-methylcyclobutyl)methanone]"
15,0.064,"Cc1ccc([C@@H]2CCC3(C2)CN(C(=O)[C@H]2C[C@@](C)(O)C2)C3)c(C)c1 (stereo in doubt) [Example 322, ((*R)-6-(2,4-Dimethylphenyl)-2-azaspiro[3.4]octan-2-yl)((1s,3*S)-3-hydroxy-3-methylcyclobutyl)methanone]"
16,0.012,"CC1(Oc2ccc(C(F)(F)F)cn2)CCC2(CC1)CN(C(=O)[C@H]1C[C@@](C)(O)C1)C2 [Example 419, ((1s,3s)-3-Hydroxy-3-methylcyclobutyl)(7-methyl-7-((5-(trifluoromethyl)pyridin-2-yl)oxy)-2-azaspiro[3.5]nonan-2-yl)methanone]"

# Source: patent publication US11802111B2, “Cyclobutyl amide monoacylglycerol lipase modulators” (Janssen Pharmaceutica NV, priority 2020, dated 2023)
